# Literature values as cited in patent publication US20230049319A1, “CANNABINOID-COMPRISING COSMETIC COMPOSITIONS” (THIS WORKS PRODUCTS LIMITED, priority 2020, published 2023).
# Tests used:
# [1] = in vivo
# anxiety = conditions: in vivo
# [2] = test system: chronic inflammation and pain; conditions: mice and rats
SMILES,"reducing anxiety, compared with trazodone hydrochloride (anxiety)",other results
C=CC(C)(O)CCC=C(C)C (stereo not shown) [Linalool],–,dose shown to be safe [1]: ≤ 120 mg
C=C[C@](C)(O)CCC=C(C)C [R-(−)-linalool],as effective as the trazodone hydrochloride,–
"C=C(C)[C@@H]1CCC(C)=C[C@H]1c1c(O)cc(CCCCC)cc1O [CBD, cannabidiol]",–,chronic inflammation and pain [2]: substantially reduce
C=C[C@@](C)(O)CCC=C(C)C [S-(+)-linalool],as effective as the trazodone hydrochloride,–
